Results: patent US20130243741A1, “RENILLA/GAUSSIA TRANSFECTED CELLS AS A LIGHT SOURCE FOR IN-SITU PHOTODYNAMIC THERAPY OF CANCER” (KANSAS STATE UNIVERSITY RESEARCH FOUNDATION, priority 2010, published 2013)

Legend:
[1] = test system: 4T1luc2 breast cancer tumors; experiment: Deep-tissue PDT treatment of metastatic 4T1 breast cancer in mice; assay type: in vivo, BALB C mice; settings: DFO 300 mg/kg i.p.; p-value: 0.65
Experimental: In this Example, PDT using in-situ generation of light was used to treat metastatic breast cancer in BALB C mice. ALA was used as the only photosensitizer/prodrug, and DFO was used as the iron chelator. The mice were divided into three treatment groups as follows. On Day 0, the mice were inoculated with 4T1luc2 breast cancer cells (100,000/mouse, i.v.). On Day 3, 25 million NSCs were plated as described above for transfection. On Day 4, the cells were transfected with Glue. On Day 5, IVIS imaging with D-luciferin was carried out in the morning to determine tumor size and stratification of the mice. In the afternoon, the mice in Groups 2 and 3 were injected with the transfected cells (1 million/mouse). On Day 7, DFO was administered i.p. (300 mg/kg), as described above. On Day 8, the photosensitizing agent, ALA, was injected i.p. (100 mg/kg). Four hours later, cyclodextrin-complexed coelenterazine was administered i.v. (100 μg) into the tail vein of each mouse. The ALA/coelenterazine procedure was repeated on Day 9, and then on Day 10. The control groups were injected with PBS.

[2] = test system: B16F10 mouse melanoma cells; experiment: LED/PDT irradiation experiment with MTT cell proliferation readout; assay type: cell-based; settings: no irradiation, RuC2 at 8×10^−5 M
Experimental: LED-irradiation experiments employing RL5-B12120 Superbright LED's, (Qmax=470 nm, light output 0.0114±0.0008 W) and a light-attenuation system consisting of a series of parallel optical filters was performed. After trypsinization, B16F10 mouse melanoma cells were counted using a hemacytometer and the trypan blue exclusion method, and plated in tissue culture plates (TPP brand, Midwest Scientific). Four hours post-plating, RuC2, TCPP, or a 1:1 mixture of RuC2 and TCPP was added to the plates, with the 1:1 mixture containing each agent at half their respective concentrations to permit comparisons at the same molar concentrations of PDT-agents. The cells were then stored in the dark for 24 hours. Next, the cells were irradiated with high or low intensity of LED light for 45 min. Twenty-four hours post-radiation, MTT cell proliferation reagent (thiazolyl blue) was added to the cells, which were then incubated four hours. Next, SDS-solubilization buffer was added and the cells were incubated for 12 hours. The plates were then read using a plate reader (Spectramax 190) at 550 nm and 690 nm (background establishment).

[3] = Redox potentials of RuC2; assay type: physicochemical
[4] = cited from earlier work

In the case of `CC(=O)N(O)CCCCCNC(=O)CCC(=O)N(O)CCCCCNC(=O)CCC(=O)N(O)CCCCCN` [DFO, deferoxamine], the “effect of the iron chelator on tumor growth” value [1] is reported as “mild effect in suppressing tumor growth”.

With `O=C(O)CC[n+]1ccc(-c2ccnc(-c3cc(-c4cc[n+](CCC(=O)O)cc4)ccn3)c2)cc1.O=C(O)CC[n+]1ccc(-c2ccnc(-c3cc(-c4cc[n+](CCC(=O)O)cc4)ccn3)c2)cc1.O=C(O)CC[n+]1ccc(-c2ccnc(-c3cc(-c4cc[n+](CCC(=O)O)cc4)ccn3)c2)cc1.[Cl-].[Cl-].[Cl-].[Cl-].[Cl-].[Cl-].[Cl-].[Cl-].[Ru+2]` [RuC2, Tris(N,N′″-bis(2-carboxyethyl)-4,4′:2,2″:4″,4′″-Quaterpyridine-N′N″-dium-N′,N′″) ruthenium(II)octachloride] the “growth inhibition in the absence of irradiation” value [2] was “approx. 20%”, the “E0 Ru^2+/1+” value [3] was −0.477 V and the “photochemical reduction potential E0*Ru^2+/1+” value [3] was 1.670 V. The “oxidation potential E0 Ru^3+/2” value ([3]; vs. SHE, pH=7.0) was 1.537 V.

In the case of `O=C(O)c1ccc(-c2c3nc(c(-c4ccc(C(=O)O)cc4)c4ccc([nH]4)c(-c4ccc(C(=O)O)cc4)c4nc(c(-c5ccc(C(=O)O)cc5)c5ccc2[nH]5)C=C4)C=C3)cc1` [TCPP, tetrakis-4-carboxyphenyl-porphyrin], the “growth inhibition in the absence of irradiation” value [2] is reported as “zero”.

For `O=c1c(Cc2ccc(O)cc2)nc2c(Cc3ccccc3)[nH]c(-c3ccc(O)cc3)cn1-2` [coelenterazine, 2-(4-hydroxybenzyl)-6-(4-hydroxyphenyl)-8-(phenylmethyl)imidazo[1,2-a]pyrazin-3(7H)-one], the long-term stability ([4]; commercially available material) is listed as “not long-term stable” and the water solubility ([4]; native form) is listed as “low”.
